The record followed here is article PMC3791872 (Bioscience Reports, 2013).

For experiment [1], the target named is T1, Mcm467 (Saccharomyces cerevisiae, UniProt P30665+P38132+P53091).
T1 construct: made in house; host or cells: baculovirus-infected insect cells
Description: Mcm467 helicase (DNA unwinding) assay. It is filed as biochemical. The conditions noted are these: DNA unwinding, 100 nM hexamer, inhibitor preincubation; […]; read-out: IC50 Mcm467.

The target in experiment [2] is SV40 large TAg (T-antigen) (Simian virus 40, UniProt P03070). Description: biochemical. Also on record: species or system SV40 (simian virus 40). To be noted: DNA unwinding.
Experiment [3] has as its system S. cerevisiae ∆erg6 (UPY675). Description: Yeast growth inhibition, 96-well assay, ∆erg6 strain. The class given is cell-based, Saccharomyces cerevisiae.
Another experiment relates to Wild-type yeast. The experiment is described as follows: Yeast growth inhibition, wild-type strain. The class given is cell-based, Saccharomyces cerevisiae. The conditions noted are these: Figure 4A. As for the experimental part:
S. cerevisiae growth inhibition was quantified using an established 96-well assay. Two isogenic W303 tester strains were used (construction details available upon request): UPY675 (matA, ade2-1, ura3-1, his3-11,15, trp1-1, leu2-3,112, can1-100, bar1::hisG, Δerg6::kanMX) and UPY1056 (isogenic to UPY675 but containing mcm4chaos3). Overnight yeast cultures were grown in YPD medium (1% (w/v) yeast extract/2% (w/v) peptone/2% (w/v) glucose), diluted to 0.05 A600, grown to an A600 of 0.1–0.15, divided into aliquots into a 96-well plate, and then treated with inhibitor titrations. Inhibitors were first diluted in pure DMSO, and then added to wells to a final volume of 100 μl containing 2% (v/v) DMSO. Plates were grown without shaking at 30°C for 24 h. Optical density was quantified at 0 and 24 h with a Bio-tek EL800 Universal Microplate reader. Percent relative growth was determined by calculating the change in optical density over 24 h at each concentration relative to a 2% DMSO control.

The next experiment concerns T2, Mcm2-7.
T2 construct: made in house; host or cells: baculovirus-infected insect cells
The experiment is described as follows: ssDNA double filter-binding assay, Mcm2-7. Also on record: species or system Saccharomyces cerevisiae. To be noted: 1 mM compound, 150 nM helicase.

The target of experiment [4] is T1, Mcm467. Description: ssDNA double filter-binding assay, Mcm467. The conditions noted are these: 1 mM compound, 150 nM helicase.
A further experiment concerns the target DnaB (Escherichia coli, UniProt P0ACB0). The experiment is described as follows: DnaB helicase assay. To be noted: 1 mM, Figure S3. The class given is biochemical. As for the experimental part:
(§1) Helicase assays were performed essentially as described. Synthetic replication forks were prepared by annealing oligos 233 and 235 [IDT (Coralville), oligo 233 5′(T)40[…]; oligo 235 5′ […](T)40] and then filling in the recessed 3′-end with [α32P]dATP and unlabelled dNTPs using Klenow Fragment. Briefly, reactions ([…]) were performed in 1× helicase assay buffer [20 mM Tris/HCl (pH 7.5), 10 mM MgOAc, 20% (v/v) glycerol, 100 μM EDTA and 5 mM DTT (dithiothreitol)] and contained a final concentration of 1 nM fork substrate, 5 mM ATP, 40 mM creatine phosphate, […] creatine kinase, 33 μg/ml BSA. Reactions containing Mcm2-7 and Mcm467 were supplemented with 200 mM potassium glutamate. Reactions containing SsoMcm were incubated at 65°C, those containing T4 gp41 were incubated for 30 min at 37°C, and all other reactions were incubated at 37°C for 1 h. The products were separated by 10% (w/v) native PAGE, the resulting gels dried and the radioactivity quantified using a Fuji FLA-5100 phosphoimager. Irrespective of the protein used, all helicase assays contained equal molar helicase concentrations (100 nM, assuming in all cases that the active helicase form is hexameric). Steady-state ATP hydrolysis was assayed as published. In short, reactions were set up essentially as in the helicase assay, with minor exceptions. A non-radiolabelled DNA fork was used, helicase concentration was 100 nM (hexamer) the total ATP concentration was 500 μM and included ~0.5 μCi of [α32P]ATP, and the ATP regeneration system was omitted. Reactions were incubated for 1 h at 37°C and stopped by the addition of SDS. ATP was separated from ADP by PEI (polyethyleneimine) thin layer chromatography, and the ratio of ATP:ADP was quantified using a Fuji FLA-5100 phosphoimager. Based on our prior work, conditions were established to ensure that the results shown are within the linear range of the assay. Protein–ssDNA binding was determined with a double filter-binding assay using an ssDNA probe (oligo 826, 5′[…]) that was 5′-radiolabelled using T4 polynucleotide kinase and [γ32P]ATP [16]. For the double filter-binding assay, the helicase concentration was 150 nM (hexamer) and the ssDNA concentration was 4 nM. For all biochemical assays, helicases were preincubated with inhibitors for 20 min at 37°C unless otherwise indicated. […]
(§2) against different helicases
(§3) Representative helicase activity assays in the presence of the indicated inhibitor were tested, quantiﬁed and standardized as described in the legend to F igures 2 (A) and (B). All helicases were assayed at 100 nM
(§4) ﬁnal concentration (hexamer) with inhibitor preincubation prior to ATP […]
(§5) F igure S3 Ciproﬂoxacin poor ly inhibits hexameric helicases un- […]
(§6) All inhibitors were used at 1 mM ﬁnal concentration. […]

The target in the next experiment is T3, T4 gp41 (Enterobacteria phage T4, UniProt P04530).
T3 sequence (P04530 1-475): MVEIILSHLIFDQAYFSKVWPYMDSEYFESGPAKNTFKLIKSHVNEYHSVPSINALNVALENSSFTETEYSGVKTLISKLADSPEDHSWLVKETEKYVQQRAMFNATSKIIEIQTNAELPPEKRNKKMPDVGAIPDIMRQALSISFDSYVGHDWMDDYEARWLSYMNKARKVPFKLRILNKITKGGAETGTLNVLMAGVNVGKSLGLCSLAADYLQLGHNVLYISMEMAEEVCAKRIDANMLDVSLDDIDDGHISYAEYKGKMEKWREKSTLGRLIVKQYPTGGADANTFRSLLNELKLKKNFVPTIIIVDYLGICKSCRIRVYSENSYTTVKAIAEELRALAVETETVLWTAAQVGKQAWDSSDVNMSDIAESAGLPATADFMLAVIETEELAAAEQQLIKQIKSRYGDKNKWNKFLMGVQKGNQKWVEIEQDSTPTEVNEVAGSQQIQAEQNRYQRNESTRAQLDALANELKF
The experiment is described as follows: T4 gp41 helicase assay. The class given is biochemical. The conditions noted are these: 1 mM, Figure S3. How it is done: as §1, §2, §3, §4, §5, §6

Where two headings read alike, the source gives them in different places.

Sequence of SV40 large TAg (T-antigen) (P03070 whole entry, looked up): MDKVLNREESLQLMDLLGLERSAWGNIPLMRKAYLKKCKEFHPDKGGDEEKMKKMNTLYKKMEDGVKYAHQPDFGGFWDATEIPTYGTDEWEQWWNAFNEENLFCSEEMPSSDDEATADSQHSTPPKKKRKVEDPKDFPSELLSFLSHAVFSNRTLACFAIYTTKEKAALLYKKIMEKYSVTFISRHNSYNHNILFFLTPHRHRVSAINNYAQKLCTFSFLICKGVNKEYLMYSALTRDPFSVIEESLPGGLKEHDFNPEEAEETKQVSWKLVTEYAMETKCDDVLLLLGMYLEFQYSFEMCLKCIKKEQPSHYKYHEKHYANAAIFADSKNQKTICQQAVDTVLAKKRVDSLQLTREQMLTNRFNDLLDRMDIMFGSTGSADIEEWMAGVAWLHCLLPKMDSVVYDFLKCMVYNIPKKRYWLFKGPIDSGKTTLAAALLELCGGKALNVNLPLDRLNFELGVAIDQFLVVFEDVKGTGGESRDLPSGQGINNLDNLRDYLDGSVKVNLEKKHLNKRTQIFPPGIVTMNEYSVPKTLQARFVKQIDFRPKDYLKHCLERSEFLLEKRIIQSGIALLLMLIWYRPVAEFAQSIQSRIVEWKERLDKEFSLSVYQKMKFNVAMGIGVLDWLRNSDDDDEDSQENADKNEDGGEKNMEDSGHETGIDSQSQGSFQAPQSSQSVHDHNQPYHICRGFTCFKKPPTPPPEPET
T1 sequence (P30665 whole entry): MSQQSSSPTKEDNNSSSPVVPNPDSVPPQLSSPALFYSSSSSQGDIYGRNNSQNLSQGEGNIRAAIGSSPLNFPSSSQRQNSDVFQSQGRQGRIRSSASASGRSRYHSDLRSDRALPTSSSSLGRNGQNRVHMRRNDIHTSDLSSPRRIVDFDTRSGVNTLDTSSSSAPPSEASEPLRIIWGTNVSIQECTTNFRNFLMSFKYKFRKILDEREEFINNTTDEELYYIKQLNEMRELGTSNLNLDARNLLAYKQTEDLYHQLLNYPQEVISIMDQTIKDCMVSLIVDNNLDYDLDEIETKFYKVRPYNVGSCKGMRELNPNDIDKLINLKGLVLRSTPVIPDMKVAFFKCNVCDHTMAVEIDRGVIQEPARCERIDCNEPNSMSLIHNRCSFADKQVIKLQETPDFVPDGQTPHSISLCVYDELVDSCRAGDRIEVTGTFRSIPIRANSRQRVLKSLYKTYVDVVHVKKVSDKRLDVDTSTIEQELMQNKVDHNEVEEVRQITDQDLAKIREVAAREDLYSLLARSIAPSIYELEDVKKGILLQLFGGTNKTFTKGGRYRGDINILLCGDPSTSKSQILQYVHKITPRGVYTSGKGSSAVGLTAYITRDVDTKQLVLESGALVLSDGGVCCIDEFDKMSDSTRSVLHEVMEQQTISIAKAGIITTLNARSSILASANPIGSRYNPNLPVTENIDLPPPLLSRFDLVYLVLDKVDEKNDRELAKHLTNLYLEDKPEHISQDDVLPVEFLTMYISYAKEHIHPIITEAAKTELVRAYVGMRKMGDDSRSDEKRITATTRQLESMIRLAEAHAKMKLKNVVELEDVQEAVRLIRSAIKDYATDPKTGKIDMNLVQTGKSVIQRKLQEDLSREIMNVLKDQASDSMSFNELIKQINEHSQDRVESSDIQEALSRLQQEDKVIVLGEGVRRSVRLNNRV
T1 sequence (P53091 whole entry): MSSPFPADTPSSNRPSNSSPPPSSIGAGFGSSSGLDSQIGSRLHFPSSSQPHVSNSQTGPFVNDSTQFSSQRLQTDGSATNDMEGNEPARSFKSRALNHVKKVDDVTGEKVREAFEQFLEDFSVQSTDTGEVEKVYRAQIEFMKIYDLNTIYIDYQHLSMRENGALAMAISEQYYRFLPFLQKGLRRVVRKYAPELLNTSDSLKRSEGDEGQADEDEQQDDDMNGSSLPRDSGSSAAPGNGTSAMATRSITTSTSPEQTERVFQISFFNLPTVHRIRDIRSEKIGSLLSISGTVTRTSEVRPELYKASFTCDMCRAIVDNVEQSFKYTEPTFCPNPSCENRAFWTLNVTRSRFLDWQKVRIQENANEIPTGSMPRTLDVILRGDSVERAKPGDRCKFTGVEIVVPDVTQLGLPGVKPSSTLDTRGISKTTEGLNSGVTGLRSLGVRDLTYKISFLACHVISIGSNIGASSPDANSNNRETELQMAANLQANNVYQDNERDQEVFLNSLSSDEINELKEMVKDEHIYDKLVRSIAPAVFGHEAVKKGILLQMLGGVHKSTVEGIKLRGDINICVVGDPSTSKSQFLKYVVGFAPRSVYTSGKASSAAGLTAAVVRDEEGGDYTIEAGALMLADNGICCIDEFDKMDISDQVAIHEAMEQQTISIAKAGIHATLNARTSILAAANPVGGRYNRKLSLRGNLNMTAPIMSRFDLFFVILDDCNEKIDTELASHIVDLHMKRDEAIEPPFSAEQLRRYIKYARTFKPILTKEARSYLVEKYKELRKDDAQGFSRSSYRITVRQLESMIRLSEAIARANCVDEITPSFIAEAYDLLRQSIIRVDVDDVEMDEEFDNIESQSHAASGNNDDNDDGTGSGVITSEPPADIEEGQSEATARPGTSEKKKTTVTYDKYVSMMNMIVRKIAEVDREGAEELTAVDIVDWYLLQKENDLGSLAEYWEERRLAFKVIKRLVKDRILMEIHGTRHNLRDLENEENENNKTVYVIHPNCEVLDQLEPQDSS
T1 sequence (P38132 whole entry): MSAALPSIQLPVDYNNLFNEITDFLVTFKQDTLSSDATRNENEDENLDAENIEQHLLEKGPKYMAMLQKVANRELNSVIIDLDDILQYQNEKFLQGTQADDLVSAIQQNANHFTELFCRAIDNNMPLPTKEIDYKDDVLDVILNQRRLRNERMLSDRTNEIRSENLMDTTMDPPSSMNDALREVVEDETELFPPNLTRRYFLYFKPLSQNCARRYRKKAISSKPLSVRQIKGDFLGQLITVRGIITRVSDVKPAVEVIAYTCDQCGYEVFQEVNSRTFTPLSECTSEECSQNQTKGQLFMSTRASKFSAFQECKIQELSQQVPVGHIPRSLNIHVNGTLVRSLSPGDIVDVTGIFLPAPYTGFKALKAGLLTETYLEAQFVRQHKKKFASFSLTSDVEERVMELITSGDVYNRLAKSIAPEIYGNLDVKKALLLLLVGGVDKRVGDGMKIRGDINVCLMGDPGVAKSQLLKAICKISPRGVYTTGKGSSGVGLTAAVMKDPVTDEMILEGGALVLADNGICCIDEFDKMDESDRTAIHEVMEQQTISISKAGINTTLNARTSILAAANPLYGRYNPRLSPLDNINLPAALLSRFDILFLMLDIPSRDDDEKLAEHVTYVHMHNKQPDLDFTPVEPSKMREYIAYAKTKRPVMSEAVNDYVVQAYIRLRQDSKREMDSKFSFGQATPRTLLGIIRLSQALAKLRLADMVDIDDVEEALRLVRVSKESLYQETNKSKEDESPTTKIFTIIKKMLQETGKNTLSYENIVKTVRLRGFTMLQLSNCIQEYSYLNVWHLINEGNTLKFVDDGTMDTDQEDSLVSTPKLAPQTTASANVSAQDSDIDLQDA
Sequence of DnaB (P0ACB0 whole entry, the tested form may be a part): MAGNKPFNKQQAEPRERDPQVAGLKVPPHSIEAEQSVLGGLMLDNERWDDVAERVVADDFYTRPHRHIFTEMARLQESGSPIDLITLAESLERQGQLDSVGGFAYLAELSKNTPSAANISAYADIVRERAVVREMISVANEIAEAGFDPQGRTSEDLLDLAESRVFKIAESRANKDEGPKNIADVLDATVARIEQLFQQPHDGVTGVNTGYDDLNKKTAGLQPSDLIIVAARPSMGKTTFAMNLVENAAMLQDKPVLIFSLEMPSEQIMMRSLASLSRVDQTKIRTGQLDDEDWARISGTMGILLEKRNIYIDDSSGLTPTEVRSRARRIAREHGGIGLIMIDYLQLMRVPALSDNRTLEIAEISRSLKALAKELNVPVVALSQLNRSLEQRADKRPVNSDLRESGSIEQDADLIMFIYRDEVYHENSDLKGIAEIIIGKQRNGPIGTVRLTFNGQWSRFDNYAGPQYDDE

As for `O=C(O)c1cn(C2CC2)c2cc(N3CCNCC3)c(F)cc2c1=O` [Ciprofloxacin, ciprofloxacin, reference compound], the IC50 – broadly, the concentration that gives 50% inhibition – on Mcm467 [1] was 1890 µM; in experiment [2] (100 nM complex, read-out: IC50 TAg helicase activity) it was 4000 µM; in experiment [2] (100 nM hexamer, inhibitor preincubation, […], read-out: IC50 T-antigen), 4010 µM; in experiment [3] (Saccharomyces cerevisiae, ∆erg6 strain, growth over 24 h, value (95% CI), read-out: IC50 Yeast), 590 µM. Further, the “growth response of ∆erg6 yeast” value in experiment [3] (Figure 4A) is “demonstrable growth sensitivity”. Moreover, the “growth response of wild-type yeast” value with Wild-type yeast was “resistant”. In addition, the “effect on ssDNA binding of Mcm2-7” value with Mcm2-7 is “only modest effects”. Besides, the “effect on ssDNA binding of Mcm467” value at Mcm467 [4] was “only modest effects”. For the same compound, at DnaB, the “inhibition of DnaB helicase” value was “none of the tested helicases were substantially inhibited”. Besides, the “inhibition of T4 gp41 helicase” value against T4 gp41 was “none of the tested helicases were substantially inhibited”.
